# Measured values published in patent US10800792B2, “Inhibitors of Bruton's tyrosine kinase and method of their use” (JANSSEN PHARMACEUTICA NV, priority 2015, dated 2020).
# Target: unphosphorylated-BTK kinase domain (UP-BTK), GST-tagged human BTK (389-659aa) (Homo sapiens (Human), UniProt Q06187)
# Test: BTK kinase Lanthascreen binding assay
# Details: Lanthascreen tracer competition, 60 minutes incubation; pIC50 = negative log of the IC50 in molar
# Procedure, shortened: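 Measures how well compounds compete with a fluorescence-labelled tracer for binding to BTK in its unphosphorylated state. IC50 values were fitted and expressed as pIC50 (negative logarithm of the molar IC50).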
# unphosphorylated-BTK kinase domain (UP-BTK), GST-tagged human BTK (389-659aa), sequence (Q06187 389-659): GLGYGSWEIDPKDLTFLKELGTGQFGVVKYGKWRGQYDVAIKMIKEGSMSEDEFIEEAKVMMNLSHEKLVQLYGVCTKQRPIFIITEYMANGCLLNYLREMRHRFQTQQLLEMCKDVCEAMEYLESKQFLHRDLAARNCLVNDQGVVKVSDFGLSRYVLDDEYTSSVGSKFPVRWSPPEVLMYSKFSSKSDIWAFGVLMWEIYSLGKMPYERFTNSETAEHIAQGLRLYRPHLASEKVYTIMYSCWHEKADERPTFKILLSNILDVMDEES
row,Structure (SMILES),BTK_I_binding pIC50
1,"C=CC(=O)N1CCC[C@@H](NC(=O)c2sc3nccc4c3c2NC(=O)N4c2ccc(Oc3cccnc3C)cc2)C1 [Example 771, (R)—N-(1-Acryloylpiperidin-3-yl)-5-(4-((2-methylpyridin-3-yl)oxy)phenyl)-4-oxo-4,5-dihydro-3H-1-thia-3,5,8-triazaacenaphthylene-2-carboxamide]",7.4
2,"Cc1cc(Oc2cccc(COc3ccccc3C#N)c2)ccc1N1C(=O)Nc2c(C(=O)NC3CCNCC3)sc3nccc1c23 [Example 857, 5-(4-(3-((2-Cyanophenoxy)methyl)phenoxy)-2-methylphenyl)-4-oxo-N-(piperidin-4-yl)-4,5-dihydro-3H-1-thia-3,5,8-triazaacenaphthylene-2-carboxamide]",7.5
3,"O=C(N[C@@H]1CCCNC1)c1sc2nccc3c2c1NC(=O)N3c1cnnc(-c2ccccc2)c1 [Example 740, (R)-4-Oxo-5-(6-phenylpyridazin-4-yl)-N-(piperidin-3-yl)-4,5-dihydro-3H-1-thia-3,5,8-triazaacenaphthylene-2-carboxamide]",<6
4,"Cc1cc(Oc2ccccc2)ccc1N1C(=O)Nc2c(NC(=O)C3CCN(C#N)CC3)sc3nccc1c23 [Example 822, 1-Cyano-N-(5-(2-methyl-4-phenoxyphenyl)-4-oxo-4,5-dihydro-3H-1-thia-3,5,8-triazaacenaphthylen-2-yl)piperidine-4-carboxamide]",5.8
5,"O=C(N[C@@H]1CCCNC1)c1sc2nccc3c2c1NC(=O)N3c1cccc(-c2ccccn2)c1 [Example 622, (R)-4-Oxo-N-(piperidin-3-yl)-5-(3-(pyridin-2-yl)phenyl)-4,5-dihydro-3H-1-thia-3,5,8-triazaacenaphthylene-2-carboxamide]",<6
6,"N#C/C(=C\C1CC1)C(=O)N1CCC[C@@H](NC(=O)c2sc3nccc4c3c2NC(=O)N4c2ccc(C(=O)Nc3cc(C(F)(F)F)ccn3)cc2F)C1 [Example 836, (R,E)-N-(1-(2-Cyano-3-cyclopropylacryloyl)piperidin-3-yl)-5-(2-fluoro-4-((4-(trifluoromethyl)pyridin-2-yl)carbamoyl)phenyl)-4-oxo-4,5-dihydro-3H-1-thia-3,5,8-triazaacenaphthylene-2-carboxamide]",7.9

# Same assay, conditions: Lanthascreen tracer competition, 60 minutes incubation; pIC50 = negative log of the IC50 in molar; read-out: BTK_I_binding pIC50 (converted)
row,Structure (SMILES),IC50 [nM]
1,"O=C(N[C@@H]1CCCNC1)c1sc2nccc3c2c1NC(=O)N3c1cccc(OC2CCCC2)c1 [Example 613, (R)-5-(3-(Cyclopentyloxy)phenyl)-4-oxo-N-(piperidin-3-yl)-4,5-dihydro-3H-1-thia-3,5,8-triazaacenaphthylene-2-carboxamide]",794
2,"O=C(N[C@@H]1CCNC[C@H]1O)c1sc2nccc3c2c1NC(=O)N3c1ccc(Oc2ccccc2)cc1 (relative stereo) [Example 615, N-(trans-3-Hydroxypiperidin-4-yl)-4-oxo-5-(4-phenoxyphenyl)-4,5-dihydro-3H-1-thia-3,5,8-triazaacenaphthylene-2-carboxamide]",794

# Same assay, conditions: pIC50 = negative log of the IC50 in molar; 60 minutes incubation, 50 nM Tracer 236
row,Structure (SMILES),BTK_I_binding pIC50
1,"C=CC(=O)N1CC[C@@H](NC(=O)c2sc3nccc4c3c2NC(=O)N4c2ccc(S(F)(F)(F)(F)F)cc2C)C1 [Example 264, (R)—N-(1-Acryloylpyrrolidin-3-yl)-5-(2-methyl-4-(pentafluorothio)phenyl)-4-oxo-4,5-dihydro-3H-1-thia-3,5,8-triazaacenaphthylene-2-carboxamide]",6.4
2,"Cc1cc(Oc2ccccc2)ccc1N1C(=O)Nc2c(C(=O)N[C@@H]3CCCN(C(=O)/C(C#N)=C/C(C)(C)NC4CC4)C3)sc3nccc1c23 [Example 152, (R,E)-N-(1-(2-Cyano-4-(cyclopropylamino)-4-methylpent-2-enoyl)piperidin-3-yl)-5-(2-methyl-4-phenoxyphenyl)-4-oxo-4,5-dihydro-3H-1-thia-3,5,8-triazaacenaphthylene-2-carboxamide]",7.3
3,"COC(C)CC(=O)N1CCC[C@@H](NC(=O)c2sc3nccc4c3c2NC(=O)N4c2ccc(Oc3ccccc3)cc2C)C1 (stereo partly drawn) [Example 155, N-((3R)-1-(3-Methoxybutanoyl)piperidin-3-yl)-5-(2-methyl-4-phenoxyphenyl)-4-oxo-4,5-dihydro-3H-1-thia-3,5,8-triazaacenaphthylene-2-carboxamide]",7.0
4,"CC(C)=CC(=O)N1CCC[C@@H](NC(=O)c2sc3nccc4c3c2NC(=O)N4c2ccc(Oc3ccccc3)cc2C)C1 [Example 225, (R)-5-(2-Methyl-4-phenoxyphenyl)-N-(1-(3-methylbut-2-enoyl)piperidin-3-yl)-4-oxo-4,5-dihydro-3H-1-thia-3,5,8-triazaacenaphthylene-2-carboxamide]",6.7
5,"Cc1cc(Oc2ccccc2)ccc1N1C(=O)Nc2c(C(=O)NC3CN(C(C)C)C3)sc3nccc1c23 [Example 273, N-(1-Isopropylazetidin-3-yl)-5-(2-methyl-4-phenoxyphenyl)-4-oxo-4,5-dihydro-3H-1-thia-3,5,8-triazaacenaphthylene-2-carboxamide]",6.3
6,"Cc1cc(Oc2ccccc2)ccc1N1C(=O)Nc2c(C(=O)N[C@@H]3CCCN(C(=O)C4COC4)C3)sc3nccc1c23 [Example 136, (R)-5-(2-Methyl-4-phenoxyphenyl)-N-(1-(oxetane-3-carbonyl)piperidin-3-yl)-4-oxo-4,5-dihydro-3H-1-thia-3,5,8-triazaacenaphthylene-2-carboxamide]",7.1
7,"COC(C)(C)/C=C(\C#N)C(=O)N1CCC[C@@H](NC(=O)c2sc3nccc4c3c2NC(=O)N4c2ccc(Oc3ccccc3)cc2C)C1 [Example 40, (R,E)-N-(1-(2-Cyano-4-methoxy-4-methylpent-2-enoyl)piperidin-3-yl)-5-(2-methyl-4-phenoxyphenyl)-4-oxo-4,5-dihydro-3H-1-thia-3,5,8-triazaacenaphthylene-2-carboxamide]",7.6
8,"C=C(C(=O)N1CCC[C@@H](NC(=O)c2sc3nccc4c3c2NC(=O)N4c2ccc(Oc3ccccc3)cc2C)C1)C(F)(F)F [Example 144, (R)-5-(2-Methyl-4-phenoxyphenyl)-4-oxo-N-(1-(2-(trifluoromethyl)acryloyl)piperidin-3-yl)-4,5-dihydro-3H-1-thia-3,5,8-triazaacenaphthylene-2-carboxamide]",7.5

# Same assay, conditions: unphosphorylated-BTK kinase domain, 50 nM Tracer 236, 60 minutes; pIC50 = negative log of the IC50 in molar
row,Structure (SMILES),BTK_I_binding pIC50
1,"C=CC(=O)N1CCC[C@@H](NC(=O)c2sc3nccc4c3c2NC(=O)N4c2ncc(Oc3ccccc3)cc2C)C1 [Example 497, (R)—N-(1-Acryloylpiperidin-3-yl)-5-(3-methyl-5-phenoxypyridin-2-yl)-4-oxo-4,5-dihydro-3H-1-thia-3,5,8-triazaacenaphthylene-2-carboxamide]",7.9
2,"Cc1cc(Oc2ccccc2)ccc1N1C(=O)Nc2c(C(=O)N[C@@H]3CCCN(C(=O)[C@@H]4CCN4)C3)sc3nccc1c23 [Example 386, N—((R)-1-((S)-Azetidine-2-carbonyl)piperidin-3-yl)-5-(2-methyl-4-phenoxyphenyl)-4-oxo-4,5-dihydro-3H-1-thia-3,5,8-triazaacenaphthylene-2-carboxamide]",6.9
3,"O=C(N[C@@H]1CCCNC1)c1sc2nccc3c2c1NC(=O)N3c1cccc(Oc2ccccc2)c1 [Example 466, (R)-4-Oxo-5-(3-phenoxyphenyl)-N-(piperidin-3-yl)-4,5-dihydro-3H-1-thia-3,5,8-triazaacenaphthylene-2-carboxamide]",6.7
4,"C=CC(=O)N1CC[C@@H](NC(=O)c2sc3nccc4c3c2NC(=O)N4c2cccc(-c3ccccc3)c2)C1 [Example 531, (R)-5-([1,1′-Biphenyl]-3-yl)-N-(1-acryloylpyrrolidin-3-yl)-4-oxo-4,5-dihydro-3H-1-thia-3,5,8-triazaacenaphthylene-2-carboxamide]",7.5
5,"Cc1cc(Oc2ccncc2)ccc1N1C(=O)Nc2c(C(=O)N[C@@H]3CCCN(C)C3)sc3nccc1c23 [Example 354, (R)-5-(2-Methyl-4-(pyridin-4-yloxy)phenyl)-N-(1-methylpiperidin-3-yl)-4-oxo-4,5-dihydro-3H-1-thia-3,5,8-triazaacenaphthylene-2-carboxamide]",<5
6,"Cc1cc(Oc2ccccc2)ccc1N1C(=O)Nc2c(C(=O)N[C@@H]3CCN(C(=O)CN(C)C)C3)sc3nccc1c23 [Example 384, (R)—N-(1-(2-(Dimethylamino)acetyl)pyrrolidin-3-yl)-5-(2-methyl-4-phenoxyphenyl)-4-oxo-4,5-dihydro-3H-1-thia-3,5,8-triazaacenaphthylene-2-carboxamide]",7.1

# Same assay, conditions: unphosphorylated-BTK kinase domain, 60 minutes incubation, 50 nM Tracer 236; pIC50 = negative log of the IC50 in molar
row,Structure (SMILES),BTK_I_binding pIC50
1,"Cc1cccc(N2C(=O)Nc3c(C(=O)N[C@@H]4CCCNC4)sc4nccc2c34)c1 [Example 950, (R)-4-Oxo-N-(piperidin-3-yl)-5-(m-tolyl)-4,5-dihydro-3H-1-thia-3,5,8-triazaacenaphthylene-2-carboxamide]",5.1
2,"Cc1ccc(Oc2ccccc2)cc1N1C(=O)Nc2c(C(=O)N[C@H]3CCCN(C(=O)/C(C#N)=C/C4CC4)C3)sc3nccc1c23 [Example 938, (S,E)-N-(1-(2-Cyano-3-cyclopropylacryloyl)piperidin-3-yl)-5-(2-methyl-5-phenoxyphenyl)-4-oxo-4,5-dihydro-3H-1-thia-3,5,8-triazaacenaphthylene-2-carboxamide]",6.0
3,"O=C(N[C@@H]1CCCNC1)c1sc2nccc3c2c1NC(=O)N3c1ccc(F)cc1 [Example 953, (R)-5-(4-Fluorophenyl)-4-oxo-N-(piperidin-3-yl)-4,5-dihydro-3H-1-thia-3,5,8-triazaacenaphthylene-2-carboxamide]",5.1
4,"COc1ccccc1Oc1ccc(N2C(=O)Nc3c(C(=O)NC4CCN(C)CC4)sc4nccc2c34)c(C)c1 [Example 918, 5-(4-(2-Methoxyphenoxy)-2-methylphenyl)-N-(1-methylpiperidin-4-yl)-4-oxo-4,5-dihydro-3H-1-thia-3,5,8-triazaacenaphthylene-2-carboxamide]",6.4
